# Laboratory results as given in patent US20220409620A1, “REDUCING IMMUNOGENICITY TO PEGLOTICASE” (Horizon Pharma Rheumatology LLC, priority 2016, published 2022).
# System: adult patients with uncontrolled gout
# Experiment: Serum uric acid (sUA) levels and sUA responder rate, open-label study of pegloticase with MTX (MIRROR OL)
# Assay type: in vivo, human
# Details: mITT Population
# Experimental: The primary objective is to estimate the response rate during Month 6 (Weeks 20, 22, and 24), as measured by the sustained normalization of serum uric acid (SUA) to <6 mg/dL for at least 80% of the time during Month 6 in subjects receiving KXX with MTX.
# The primary efficacy outcome endpoint is the sustained normalization of SUA to <6 mg/dL for at least 80% of the time during month 6 (weeks 20, 22, and 24) in subjects receiving KXX with MTX. […] Participants who achieve this endpoint were classified as “responders.” Serum uric acid (SUA) responders may also be defined as participants achieving and maintaining SUA <6 mg/dL for at least 80% of the time during Month 6 (Weeks 20, 22, and 24).
# Blood samples may be collected prior to each pegloticase infusion for measurement of SUA levels using the Beckman Coulter AU System Uric Acid procedure. Participants were declared “non-responders” if there were SUA measures >6 mg/dL at 2 consecutive study visits beginning with the week 2 visit. […] This assumption and subsequent discontinuation of pegloticase was consistent with the protocol of large phase III randomized controlled trials and the product label. A formal stopping rule was 2 occasions of SUA levels of greater than 6 mg/dL.
# Clinical Chemistry—Blood samples were collected prior to each pegloticase infusion for measurement of SUA levels (primary efficacy parameter) using the Beckman Coulter AU System Uric Acid procedure. In this procedure uric acid is converted to hydrogen peroxide. Hydrogen peroxide reacts with reagent to produce a chromophore which is read bichromatically at 660/800 nm. The amount of dye formed is proportional to the uric acid concentration in the sample.
# Serum samples for measurement of SUA levels were collected at the Screening Visit, the Week −4 Visit (prior to the first dose of MTX), and the Week −2 Visit during the MTX Run-in Period; within 48 hours prior to each pegloticase infusion and after the end of each pegloticase infusion prior to discharge from the site during the Pegloticase+IMM Period; at the non-infusion Week 52/End of Study/Early Termination Visits and at the Post Treatment 3 and 6 Month Follow-up Visits. Additional serum samples for SUA levels were collected at optional non-infusion (Frequent Sampling) Visits at Weeks 1 and 7. […] Subjects with SUA level >6 mg/dL at 2 consecutive visits beginning at Week 2 visit discontinued treatment, completed the End of Pegloticase Infusion Visit procedures within 2 weeks and continued the subject visits according to the protocol (without treatment).
# Efficacy analyses were performed using the modified intention-to-treat (mITT) population, defined as all enrolled subjects who received ≥1 dose of pegloticase. The proportion of Month 6 responders was summarized, along with a 95% confidence interval for the proportion. The proportion of Month 3 and overall (Months 3 and 6 combined) responders was analyzed similarly.
# A subject was declared a non-responder if the subject had SUA level >6 mg/dL at 2 consecutive study visits beginning with the Week 2 Visit. In addition, a subject who withdraws from study treatment for any reason after the first dose of pegloticase in the KXX+MTX Period and prior to Month 6 (for the primary endpoint) or Month 3 (for the secondary endpoint) was considered a non-responder if SUA values were not collected at the planned time points.
# Patients were administered oral MTX (15 mg/week) and folate (1 mg/day) 4 weeks prior to the first pegloticase infusion (Day 1) and throughout the pegloticase treatment period. Blood was drawn prior to each infusion to measure sUA level, monitor clinical parameters, and examine for ADA development. All patients followed typical IR prophylaxis protocols (fexofenadine one day before and the morning of each infusion and acetaminophen and IV corticosteroid the morning of each infusion).
substance,measurement,setting,value
pegloticase,"Serum Uric Acid, Observed, Mean (SD)",Week 7,0.30 (0.000) mg/dL
same,"Serum Uric Acid, Observed, Median",Week 7,0.30 mg/dL
same,"sUA <6 mg/dL, n (%)",Week 7,4 (100%)
same,"Serum Uric Acid, Change from Baseline, Mean (SD)",Week 8 - Post-Infusion,−8.98 (2.679) mg/dL
same,"Serum Uric Acid, Change from Baseline, Median",Week 8 - Post-Infusion,-8.95 mg/dL
same,"Serum Uric Acid, Observed, Mean (SD)",Week 8 - Post-Infusion,0.30 (0.000) mg/dL
same,"Serum Uric Acid, Observed, Median",Week 8 - Post-Infusion,0.30 mg/dL
same,"sUA <6 mg/dL, n (%)",Week 8 - Post-Infusion,12 (100%)
same,"Serum Uric Acid, Change from Baseline, Mean (SD)",Week 8 - Pre-Infusion,−8.20 (3.624) mg/dL
same,"Serum Uric Acid, Change from Baseline, Median",Week 8 - Pre-Infusion,-8.33 mg/dL
same,"Serum Uric Acid, Observed, Mean (SD)",Week 8 - Pre-Infusion,1.08 (2.472) mg/dL
same,"Serum Uric Acid, Observed, Median",Week 8 - Pre-Infusion,0.30 mg/dL
same,"sUA <6 mg/dL, n (%)",Week 8 - Pre-Infusion,11 (91.7%)
same,"Serum Uric Acid, Change from Baseline, Mean (SD)",Week 10 - Post-Infusion,−8.97 (2.810) mg/dL
same,"Serum Uric Acid, Change from Baseline, Median",Week 10 - Post-Infusion,-8.80 mg/dL
same,"Serum Uric Acid, Observed, Mean (SD)",Week 10 - Post-Infusion,0.30 (0.000) mg/dL
same,"Serum Uric Acid, Observed, Median",Week 10 - Post-Infusion,0.30 mg/dL
same,"sUA <6 mg/dL, n (%)",Week 10 - Post-Infusion,11 (100%)
same,"Serum Uric Acid, Change from Baseline, Mean (SD)",Week 10 - Pre-Infusion,−8.33 (3.476) mg/dL
same,"Serum Uric Acid, Change from Baseline, Median",Week 10 - Pre-Infusion,-8.70 mg/dL
same,"Serum Uric Acid, Observed, Mean (SD)",Week 10 - Pre-Infusion,0.95 (2.252) mg/dL
same,"Serum Uric Acid, Observed, Median",Week 10 - Pre-Infusion,0.30 mg/dL
same,"sUA <6 mg/dL, n (%)",Week 10 - Pre-Infusion,11 (91.7%)
same,"Serum Uric Acid, Change from Baseline, Mean (SD)",Week 12 - Post-Infusion,−9.13 (2.911) mg/dL
same,"Serum Uric Acid, Change from Baseline, Median",Week 12 - Post-Infusion,-9.05 mg/dL
same,"Serum Uric Acid, Observed, Mean (SD)",Week 12 - Post-Infusion,0.30 (0.000) mg/dL
same,"Serum Uric Acid, Observed, Median",Week 12 - Post-Infusion,0.30 mg/dL
same,"sUA <6 mg/dL, n (%)",Week 12 - Post-Infusion,10 (100%)
same,"Serum Uric Acid, Change from Baseline, Mean (SD)",Week 12 - Pre-Infusion,−8.98 (2.806) mg/dL
same,"Serum Uric Acid, Change from Baseline, Median",Week 12 - Pre-Infusion,-8.80 mg/dL
same,"Serum Uric Acid, Observed, Mean (SD)",Week 12 - Pre-Infusion,0.30 (0.015) mg/dL
same,"Serum Uric Acid, Observed, Median",Week 12 - Pre-Infusion,0.30 mg/dL
same,"sUA <6 mg/dL, n (%)",Week 12 - Pre-Infusion,11 (100%)
same,"Serum Uric Acid, Change from Baseline, Mean (SD)",Week 14 - Post-Infusion,−9.01 (2.959) mg/dL
same,"Serum Uric Acid, Change from Baseline, Median",Week 14 - Post-Infusion,-9.05 mg/dL
same,"Serum Uric Acid, Observed, Mean (SD)",Week 14 - Post-Infusion,0.30 (0.000) mg/dL
same,"Serum Uric Acid, Observed, Median",Week 14 - Post-Infusion,0.30 mg/dL
same,"sUA <6 mg/dL, n (%)",Week 14 - Post-Infusion,10 (100%)
same,"Serum Uric Acid, Change from Baseline, Mean (SD)",Week 14 - Pre-Infusion,−8.97 (2.810) mg/dL
same,"Serum Uric Acid, Change from Baseline, Median",Week 14 - Pre-Infusion,-8.80 mg/dL
same,"Serum Uric Acid, Observed, Mean (SD)",Week 14 - Pre-Infusion,0.30 (0.000) mg/dL
same,"Serum Uric Acid, Observed, Median",Week 14 - Pre-Infusion,0.30 mg/dL
same,"sUA <6 mg/dL, n (%)",Week 14 - Pre-Infusion,11 (100%)
same,"Serum Uric Acid, Change from Baseline, Mean (SD)",Week 16 - Post-Infusion,−8.97 (2.810) mg/dL
same,"Serum Uric Acid, Change from Baseline, Median",Week 16 - Post-Infusion,-8.80 mg/dL
same,"Serum Uric Acid, Observed, Mean (SD)",Week 16 - Post-Infusion,0.30 (0.000) mg/dL
same,"Serum Uric Acid, Observed, Median",Week 16 - Post-Infusion,0.30 mg/dL
same,"sUA <6 mg/dL, n (%)",Week 16 - Post-Infusion,11 (100%)
same,"Serum Uric Acid, Change from Baseline, Mean (SD)",Week 16 - Pre-Infusion,−8.97 (2.810) mg/dL
same,"Serum Uric Acid, Change from Baseline, Median",Week 16 - Pre-Infusion,-8.80 mg/dL
same,"Serum Uric Acid, Observed, Mean (SD)",Week 16 - Pre-Infusion,0.30 (0.000) mg/dL
same,"Serum Uric Acid, Observed, Median",Week 16 - Pre-Infusion,0.30 mg/dL
same,"sUA <6 mg/dL, n (%)",Week 16 - Pre-Infusion,11 (100%)
same,"Serum Uric Acid, Change from Baseline, Mean (SD)",Week 18 - Post-Infusion,−8.97 (2.810) mg/dL
same,"Serum Uric Acid, Change from Baseline, Median",Week 18 - Post-Infusion,-8.80 mg/dL
same,"Serum Uric Acid, Observed, Mean (SD)",Week 18 - Post-Infusion,0.30 (0.000) mg/dL
same,"Serum Uric Acid, Observed, Median",Week 18 - Post-Infusion,0.30 mg/dL
same,"sUA <6 mg/dL, n (%)",Week 18 - Post-Infusion,11 (100%)
same,"Serum Uric Acid, Change from Baseline, Mean (SD)",Week 18 - Pre-Infusion,−8.97 (2.810) mg/dL
same,"Serum Uric Acid, Change from Baseline, Median",Week 18 - Pre-Infusion,-8.80 mg/dL
same,"Serum Uric Acid, Observed, Mean (SD)",Week 18 - Pre-Infusion,0.30 (0.000) mg/dL
same,"Serum Uric Acid, Observed, Median",Week 18 - Pre-Infusion,0.30 mg/dL
same,"sUA <6 mg/dL, n (%)",Week 18 - Pre-Infusion,11 (100%)
